The source of these data is patent publication US20200384003A1, “TRITERPENOID-CONTAINING PHARMACEUTICAL COMPOSITION AND USE THEREOF” (SHANGHAI LANMU CHEMICALS CO., LTD., priority 2017, published 2020).

The structures appear in SMILES notation.

The target in the experiment is T1, mutated lens protein (αB-crystallin R120G) (Homo sapiens, UniProt P02511, R120G).
T1 construct: expressed in transfected cells; host or cells: HeLa
T1 sequence (P02511 1-175 R120G): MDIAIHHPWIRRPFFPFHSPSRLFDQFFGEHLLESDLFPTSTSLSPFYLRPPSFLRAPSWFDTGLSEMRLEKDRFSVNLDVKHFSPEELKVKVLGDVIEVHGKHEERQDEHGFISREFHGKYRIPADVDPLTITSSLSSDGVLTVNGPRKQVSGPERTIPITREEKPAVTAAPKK
Nature of the experiment: Intracellular mutated lens protein aggregation inhibition experiment in transfected HeLa cells (Example 21). The format is cell-based. The settings on record: 10 μM, treated 3.5 hours, then 6.5 h normal medium, fewer + = better. On the procedure:
In this example, apart of the specific compounds obtained in Example 19 and Example 20 were selected for intracellular mutated lens protein (αB-crystallin R120G) aggregation inhibition experiment (experimental method was described in Chinese patent CN201580057679). The aggregation inhibition activities of compound I and compound II in the present invention on lens protein mutants were evaluated to screen a compound which was effective in treating related disease such as cataract.
The tumor cell line HeLa was selected as a host cell transfected with the mutant lens protein (αB-crystallin […]) expression plasmid, the medium was DMEM with […], and the culture conditions were 37° C., saturated humidity and 5% carbon dioxide cell incubator. Mycoplasma was negative. The transfection process is that the appropriate number of HeLa cells were inoculated on the pre-coated slides. When fully adherent cells grew to about 75% cell density, the expression vector was transfected with liposome. After 4 hours of transfection, the medium was changed to normal medium. Then the HeLa cells were cultured in the cell incubator for 13 hours to induce the expression of exogenous mutant lens protein. After changing the medium, the replaced new medium contained various compounds of the formula I and formula II of the present invention to be tested (DMSO was used as solvent in all mother fluid), wherein the final concentration of each compound was 10 μM, the negative control was 1.5% DMSO solvent, and the positive control was lanosterol (10 μM). The HeLa cells were treated with the medium containing the test compound, 1.5% DMSO solvent and lanosterol for 3.5 hours, respectively, and the normal fresh medium containing no DMSO, test compound or lanosterol was exchanged and the cells were cultured for another 6.5 h, then Anti-p62 antibody and DAPI were used for routine cellular immunofluorescence detection. The field of vision of three positions per slide was randomly selected, the ratio of cells containing aggregated crystalline proteins (lens protein aggregates) was calculated, and the effect of each test compound on intracellular aggregation of mutant lens proteins was finally determined, the results were shown in Table 19.
Regarding `C[C@H](C(O)C/C=C/C(=O)O)[C@H]1CC[C@@]2(C)C3=C(CC[C@]12C)[C@@]1(C)C[C@@H](F)[C@H](O)C(C)(C)C1CC3` (stereo partly shown) [Compound 42], the “Inhibitory effect (percentage of cells containing aggregated proteins)” value is on record as “+ (<30% of the cells in the field of vision contained protein aggregates)”.

On to `C[C@H](C(O)CCC(C)(C)O)[C@H]1CC[C@@]2(C)C3=C(CC[C@]12C)[C@@]1(C)C[C@@H](F)[C@@H](O)C(C)(C)C1CC3` (stereo partly shown) [Compound 24], for which the “Inhibitory effect (percentage of cells containing aggregated proteins)” value is “+ (<30% of the cells in the field of vision contained protein aggregates)”.

For the molecule `CC(C)(O)C(=O)CC[C@@H](C(=O)O)[C@H]1CC[C@@]2(C)C3=C(CC[C@]12C)[C@@]1(C)CC[C@H](O)C(C)(C)C1CC3` (stereo partly shown) [Compound 20′], the “Inhibitory effect (percentage of cells containing aggregated proteins)” value is “++ (>30% and <45% of the cells in the field of vision contained protein aggregates)”.

Regarding `C[C@H](C(O)CCC(C)(C)O)[C@H]1CC[C@@]2(C)C3=CCC4C(C)(C)[C@@H](O)CC[C@]4(C)C3=CC[C@]12C` (stereo partly shown) [Compound 21], the “Inhibitory effect (percentage of cells containing aggregated proteins)” value is reported as “+ (<30% of the cells in the field of vision contained protein aggregates)”.

On to `C[C@H](C(O)CCC(C)(C)O)[C@H]1CC[C@@]2(C)C3=C(CC[C@]12C)[C@@]1(C)CC[C@H](O)C(C)(C)C1CC3` (stereo partly shown) [Compound 15], for which the “Inhibitory effect (percentage of cells containing aggregated proteins)” value is on record as “+ (<30% of the cells in the field of vision contained protein aggregates)”.

As for `CC(C)(O)CCC[C@@H](C(=O)O)[C@H]1CC[C@@]2(C)C3=C(CC[C@]12C)[C@@]1(C)CC[C@H](O)C(C)(C)C1CC3` (stereo partly shown) [Compound 15′], the “Inhibitory effect (percentage of cells containing aggregated proteins)” value was “+ (<30% of the cells in the field of vision contained protein aggregates)”.

Regarding `C=C(C)C(=O)CC(O)C(C)[C@H]1CC[C@@]2(C)C3=C(CC[C@]12C)[C@@]1(C)CC[C@H](O)C(C)(C)C1CC3` (stereo partly shown) [Compound 17″], the “Inhibitory effect (percentage of cells containing aggregated proteins)” value was “++ (>30% and <45% of the cells in the field of vision contained protein aggregates)”.

For the molecule `CC(C)(O)CCC[C@@H](C(=O)O)[C@H]1CC[C@@]2(C)C3=CCC4C(C)(C)[C@@H](O)CC[C@]4(C)C3=CC[C@]12C` (stereo partly shown) [Compound 21′], the “Inhibitory effect (percentage of cells containing aggregated proteins)” value was “++ (>30% and <45% of the cells in the field of vision contained protein aggregates)”.

For `C[C@H](C(O)CC(O)C(C)(C)O)[C@H]1CC[C@@]2(C)C3=C(CC[C@]12C)[C@@]1(C)CC[C@H](O)C(C)(C)C1CC3` (stereo partly shown) [Compound 17], the “Inhibitory effect (percentage of cells containing aggregated proteins)” value is “++ (>30% and <45% of the cells in the field of vision contained protein aggregates)”.

As to `C[C@H](C(O)C/C=C/C(=O)O)[C@H]1CC[C@@]2(C)C3=C(CC[C@]12C)[C@@]1(C)CC[C@H](O)C(C)(C)C1CC3` (stereo partly shown) [Compound 34], the “Inhibitory effect (percentage of cells containing aggregated proteins)” value was “+ (<30% of the cells in the field of vision contained protein aggregates)”.

As for `C/C(=C\CC(O)[C@@H](C)[C@H]1CC[C@@]2(C)C3=C(CC[C@]12C)[C@@]1(C)CC[C@H](O)C(C)(C)C1CC3)CO` (stereo partly shown) [Compound 32], the “Inhibitory effect (percentage of cells containing aggregated proteins)” value is “+ (<30% of the cells in the field of vision contained protein aggregates)”.

As for `C=C(C)C(=O)CC[C@@H](C(=O)O)[C@H]1CC[C@@]2(C)C3=C(CC[C@]12C)[C@@]1(C)CC[C@H](O)C(C)(C)C1CC3` (stereo partly shown) [Compound 7″], the “Inhibitory effect (percentage of cells containing aggregated proteins)” value is “++ (>30% and <45% of the cells in the field of vision contained protein aggregates)”.

Take `CC(=O)[C@@H](C)[C@H]1CC[C@@]2(C)C3=C(CC[C@]12C)[C@@]1(C)CC[C@H](O)C(C)(C)C1CC3` (stereo partly shown) [Compound 6″]: the “Inhibitory effect (percentage of cells containing aggregated proteins)” value is “++ (>30% and <45% of the cells in the field of vision contained protein aggregates)”.

As for `C[C@H](C(O)CC(Br)C(C)(C)O)[C@H]1CC[C@@]2(C)C3=C(CC[C@]12C)[C@@]1(C)CC[C@H](O)C(C)(C)C1CC3` (stereo partly shown) [Compound 13], the “Inhibitory effect (percentage of cells containing aggregated proteins)” value was “++ (>30% and <45% of the cells in the field of vision contained protein aggregates)”.

As for `CC(=O)O[C@H]1CC[C@]2(C)C3=C(CCC2C1(C)C)[C@]1(C)CC[C@H]([C@H](C)C(O)CC2OC2(C)C)[C@@]1(C)CC3` (stereo partly shown) [Compound 10], the “Inhibitory effect (percentage of cells containing aggregated proteins)” value is on record as “+ (<30% of the cells in the field of vision contained protein aggregates)”.

For the molecule `C[C@H](C(O)/C=C/C(C)(C)O)[C@H]1CC[C@@]2(C)C3=C(CC[C@]12C)[C@@]1(C)CC[C@H](O)C(C)(C)C1CC3` (stereo partly shown) [Compound 4″], the “Inhibitory effect (percentage of cells containing aggregated proteins)” value was “+ (<30% of the cells in the field of vision contained protein aggregates)”.

Consider `C[C@H](C(O)CCC(C)(C)O)[C@H]1CC[C@@]2(C)C3=C(CC[C@]12C)[C@@]1(C)C[C@@H](F)[C@H](O)C(C)(C)C1CC3` (stereo partly shown) [Compound 23], for which the “Inhibitory effect (percentage of cells containing aggregated proteins)” value is “+ (<30% of the cells in the field of vision contained protein aggregates)”.

On to `CC(C)=CCC[C@H](C=O)[C@H]1CC[C@@]2(C)C3=C(CC[C@]12C)[C@@]1(C)CCC(=O)C(C)(C)C1CC3` (stereo partly shown) [Compound 5″], for which the “Inhibitory effect (percentage of cells containing aggregated proteins)” value is “++ (>30% and <45% of the cells in the field of vision contained protein aggregates)”.

`C[C@H](C(O)CCC(C)(C)O)[C@H]1CC[C@@]2(C)C3=C(CC[C@]12C)[C@@]1(C)C[C@@H](O)[C@H](O)C(C)(C)C1CC3` (stereo partly shown) [Compound 25]: the “Inhibitory effect (percentage of cells containing aggregated proteins)” value is recorded as “+ (<30% of the cells in the field of vision contained protein aggregates)”.

As to `C/C(=C\CC(O)[C@@H](C)[C@H]1CC[C@@]2(C)C3=C(CC[C@]12C)[C@@]1(C)CC[C@H](O)C(C)(C)C1CC3)C(=O)O` (stereo partly shown) [Compound 27], the “Inhibitory effect (percentage of cells containing aggregated proteins)” value is reported as “+ (<30% of the cells in the field of vision contained protein aggregates)”.

In the case of `CC(C)=CCCC(C=O)[C@H]1CC[C@@]2(C)C3=C(CC[C@]12C)[C@@]1(C)CC[C@H](O)C(C)(C)C1CC3` (stereo partly shown) [Compound 2″], the “Inhibitory effect (percentage of cells containing aggregated proteins)” value is “++ (>30% and <45% of the cells in the field of vision contained protein aggregates)”.

As for `C[C@H](C(O)C/C=N/O)[C@H]1CC[C@@]2(C)C3=C(CC[C@]12C)[C@@]1(C)CC[C@H](O)C(C)(C)C1CC3` (stereo partly shown) [Compound 5], the “Inhibitory effect (percentage of cells containing aggregated proteins)” value is “+ (<30% of the cells in the field of vision contained protein aggregates)”.

`CO[C@H]1CC[C@]2(C)C3=C(CCC2C1(C)C)[C@]1(C)CC[C@H]([C@H](C)C(O)CCC(C)(C)OC)[C@@]1(C)CC3` (stereo partly shown) [Compound 9]: the “Inhibitory effect (percentage of cells containing aggregated proteins)” value was “++ (>30% and <45% of the cells in the field of vision contained protein aggregates)”.

With `C[C@H](C(O)CC(=O)C(C)(C)O)[C@H]1CC[C@@]2(C)C3=C(CC[C@]12C)[C@@]1(C)CC[C@H](O)C(C)(C)C1CC3` (stereo partly shown) [Compound 20], the “Inhibitory effect (percentage of cells containing aggregated proteins)” value was “++ (>30% and <45% of the cells in the field of vision contained protein aggregates)”.

Take `COC(C)(C)C(O)CC(O)[C@@H](C)[C@H]1CC[C@@]2(C)C3=C(CC[C@]12C)[C@@]1(C)CC[C@H](O)C(C)(C)C1CC3` (stereo partly shown) [Compound 8″]: the “Inhibitory effect (percentage of cells containing aggregated proteins)” value is “++ (>30% and <45% of the cells in the field of vision contained protein aggregates)”.
